# Reference: patent US8293529B2, “Method for inducing differentiation of pluripotent stem cells into cardiomyocytes” (Daiichi Sankyo Company, Limited, priority 2006, dated 2012)
# Legend:
# mouse ES cells [1] = conditions: added for 3 days after initiation of differentiation induction (Naito et al.); cited from earlier work
# cmES cells [2] = experiment: Immunohistochemical staining of marker proteins in EBs from cmES cells; assay type: cell-based, common marmoset; conditions: EBs at 16 days after induction of differentiation
# Description: Subsequently, immunohistochemical staining was performed in the same manner as used in Example 2 to confirm that beating cells developed in EBs from the Wnt-treated groups were cardiomyocytes producing specific marker proteins. From EBs in the Wnt-treated groups (Wnt-3a, WNT-1) at 16 days after induction of differentiation, frozen sections were prepared and reacted with anti-sarcomeric myosin antibody, anti-GATA-4 antibody or anti-Nkx-2.5 antibody as a primary antibody. After color reaction, these sections were observed under an optical microscope.
# cmES cells [3] = experiment: Marker gene expression in EBs from cmES cells (RT-PCR); assay type: cell-based, common marmoset; conditions: EBs at 10 days after induction; vs untreated group
# Description: The EBs thus prepared were collected periodically, and total RNA was prepared with an RNeasy mini kit (Qiagen). cDNA was then synthesized with reverse transcriptase and analyzed by PCR to detect expression of common marmoset Wnt-3 gene (cmWnt-3) and β-actin (cmβActin) serving as an endogenous control. The primers used for detection are as shown below.
# Moreover, for analysis of expressed genes, EBs were collected at 10 days after induction of differentiation to detect expression of various marker genes in the same manner as used in Example 5. The primers used for detection of common marmoset Nestin, ANP, MLC-2a and MLC-2v transcripts (hereinafter referred to as cmNestin, cmANP, cmMLC-2a and cmMLC-2v, respectively) are as shown below.
# mouse ES cells [4] = experiment: Appearance rate of EBs exhibiting spontaneous beating; assay type: cell-based
# Description: Culture for inducing differentiation of ES cells into cardiomyocytes or neurons was accomplished in a routine manner as follows. ES cells were suspended in LIF-free medium, and the resulting suspension was seeded at 500 cells/50 μL per well of a commercially available 96-well culture plate for spheroid formation (Sumilon Celltight Spheroid; Sumitomo Bakelite Co., Ltd., Japan).
# In the early stage of differentiation in ES cells, transient elevations in expression of various Wnt genes were observed prior to the appearance of cardiomyocytes. Then, ES cells at this stage were treated with recombinant Wnt proteins to study the myocardial differentiation-inducing effect of the proteins. Induction of ES cell differentiation was accomplished in the same manner as used in Example 1, except that some of the experimental groups were cultured in medium containing a commercially available recombinant WNT-1 (Peprotech), Wnt-3a (R&D systems) or Wnt-5a (R&D systems) protein. Treatment of ES cells in medium supplemented with a recombinant protein of canonical Wnt such as WNT-1 is hereinafter referred to as “Wnt treatment.”
# The above canonical Wnt protein treatment is known to inhibit the action of GSK3β within cells and thereby promote stabilization of β-catenin and its transcription activation ability. Then, further studies were performed to confirm that treatment with various drugs capable of promoting stabilization of β-catenin and its transcription activation ability produced a myocardial differentiation-inducing effect on ES cells, as in the case of Wnt treatment. As drugs capable of promoting stabilization of β-catenin and its transcription activation ability, the following five commercially available compounds were used: GSK3β inhibitors BIO (Calbiochem), GSK3β inhibitor VII (Calbiochem), cell-permeable GSK3β peptide inhibitor (L803-mts; Calbiochem) and SB216763 (Biomol), as well as a Wnt agonist (Calbiochem) that promotes the transcription activation ability of β-catenin without GSK3β inhibition. ES cells were induced to differentiate in the same manner as used in the above Examples, and cultured in medium containing the above compounds during the time period between 48 and 120 hours ([…]) after induction of differentiation, as in the case of recombinant Wnt proteins.
substance,measurement,setting,value
Wnt-3a,effect on myocardial differentiation from ES cells,mouse ES cells [1],promote myocardial differentiation from ES cells
same,"cells positive for sarcomeric myosin, GATA-4 and Nkx-2.5",cmES cells [2],the great majority of EB-constituting cells were found to be positive
same,"expression of cardiomyocyte marker genes cmANP, cmMLC-2a and cmMLC-2v",cmES cells [3],significantly stronger expression
same,occurrence of beating EBs,mouse ES cells [4]; Wnt proteins added at 10 ng/mL to 50 ng/mL,very good occurrence of beating EBs
same,appearance rate of beating EBs,mouse ES cells [4]; recombinant protein added at 1 ng/mL to 100 ng/mL,significantly higher than in the untreated group
same,promoting effect on differentiation,"mouse ES cells [4]; similar studies by the applicant, added for 3 days after initiation of induction (Example 2)",no significant promoting effect on differentiation
